Reference: PubChem BioAssay AID602215 (Sanford-Burnham Center for Chemical Genomics, 2012)
pIC50: −log10 of the molar value. Activity calls are given as the source filed them.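 The calls were made as follows: active = IC50 of 20 µM or lower; inactive = the rest.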

Tested on: HL-1 cardiomyocytes, H2O2 injury, ATP luminescence, 2 h
Assay: H2O2-induced HL-1 cell death suppression – ATP luminescence, dose response (AID 602215);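 also: potency is for protection so actives raise ATP signal against peroxide damage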

| SMILES | IC50 | pIC50 |
| --- | --- | --- |
| COc1ccc(CCNC(=O)C(=O)NCC2CCCN2S(=O)(=O)c2ccccc2)cc1OC (configuration not stated) | > 79 µM (inactive) |  |
| COc1ccc(-c2csc(NC(=O)c3ccc(OCC(=O)N4CCOCC4)c(OC)c3)n2)cc1OC |  | 4.91 |
| O=[N+]([O-])c1ccc(Nc2nc(N/N=C/c3cccc(F)c3)nc(N3CCCC3)n2)cc1 | > 79 µM (inactive) |  |
| COc1cccc(/C=N/NC(=O)c2oc3nc(-c4ccccc4)cc(-c4ccco4)c3c2N)c1 | > 79 µM (inactive) |  |
| O=C(CNC(=O)c1[nH]cnc1C(=O)NC(c1ccccc1)c1ccccc1)OCc1ccccc1 | 69.7 µM (inactive) |  |
| CC(=O)c1ccc(-c2ccc(C(=O)Nc3nc(-c4ccccn4)cs3)o2)cc1 | > 79 µM (inactive) |  |
| C=CC[C@@H](CC(=O)NCCO)C(=O)NC[C@H](OC(=O)[C@@H](CC=C)Cc1ccc(F)cc1)c1ccccc1 | > 79 µM (inactive) |  |
| COc1ccc(Nc2nc(C(=O)N3CCc4cc(OC)c(OC)cc4C3)cs2)cc1 |  | 5.07 |
| COc1ccc(N(CC(=O)Nc2cccc(C(C)=O)c2)S(=O)(=O)c2ccc(NC(C)=O)cc2)cc1 | > 79 µM (inactive) |  |
| CC(C)(C)OC(=O)CNC(=O)c1[nH]cnc1C(=O)NCC(=O)OCc1ccccc1 | 28.2 µM (inactive) |  |
| Cc1nn(-c2ccccc2)c(N2CCCC2)c1/C=N/NC(=O)c1cc(-c2ccccn2)nc2ccccc12 | > 79 µM (inactive) |  |
| CCOC(=O)c1c(C)[nH]c(C)c1C(=O)COc1ncnc2cc([N+](=O)[O-])ccc12 | > 79 µM (inactive) |  |
| CCOc1ccc(-n2cc(-c3ccccc3)c3c(N4CCOCC4)ncnc32)cc1 | 24 µM (inactive) |  |
| CCOc1cc(/C=C(\C#N)C(=O)Nc2ccc(S(N)(=O)=O)cc2)ccc1OCCN1CCOCC1 | > 79 µM (inactive) |  |
| CC(=O)c1ccc(-c2cnc3c(NC=O)cc(-c4ccc(C(=O)NC5CC5)cc4)cn23)cc1 | > 79 µM (inactive) |  |
| COc1cc(/C=N/NC(=O)c2ccccc2)ccc1OS(=O)(=O)c1ccccc1 | > 79 µM (inactive) |  |
| COc1cc(C(=O)NCC(=O)N/N=C/c2ccc(-c3cccc([N+](=O)[O-])c3)o2)cc(OC)c1OC |  | 5.04 |
| Cn1c(=O)c2[nH]c(NN=Cc3ccc(Br)cc3)nc2n(C)c1=O | > 79 µM (inactive) |  |
| NC(=O)c1nsc(C(=O)N(c2ccccc2)C(C(=O)NCc2ccc(F)cc2)c2ccc(O)cc2)c1N (configuration not stated) | > 79 µM (inactive) |  |
| Cc1ccccc1N(C(=O)c1snc(C(N)=O)c1N)C(C(=O)NCc1ccccc1)c1ccc(O)cc1 (configuration not stated) |  | 4.80 |
| CC(=O)Nc1cc(-c2cccc(NS(C)(=O)=O)c2)cn2c(-c3cccc(C(C)=O)c3)cnc12 |  | 4.94 |
| COc1ccc(-n2cc(-c3ccccc3)c3c(N4CCOCC4)ncnc32)cc1 | > 79 µM (inactive) |  |

| SMILES | IC50 | pIC50 |
| --- | --- | --- |
| COC(=O)c1[nH]c2ccccc2c1NC(=O)CNC1CCCCC1 | > 79 µM (inactive) |  |
| COc1cc(-c2cc(NC(C)=O)c3ncc(-c4ccc(F)cc4)n3c2)cc(OC)c1OC | > 79 µM (inactive) |  |
| CCOc1ccccc1NC(=O)c1oc2ccccc2c1NC(=O)C1CCCO1 (configuration not stated) | > 79 µM (inactive) |  |
| COc1cccc(CN(C)C(=O)C(Cc2ccccc2)NC(=O)c2ccccc2)c1OC (configuration not stated) | > 79 µM (inactive) |  |
| COc1cc(C(=O)Nc2nc(-c3cccs3)cs2)cc(OC)c1OC | > 79 µM (inactive) |  |
| CNC(=O)COC(=O)/C=C/c1cn(-c2ccccc2)nc1-c1ccc(C)o1 | 37.1 µM (inactive) |  |
| COc1cc(CN2C[C@@H](CO)O[C@@H](n3cnc4c(Nc5ccccc5)ncnc43)C2)cc(OC)c1OC | 20.5 µM (inactive) |  |
| COc1cc(/C=C/c2nnc3c4ccccc4ncn23)cc(OC)c1OC |  | 4.86 |
| CNC(=O)c1ccc(-c2sc3nc(N4CCOCC4)c4c(c3c2N)CC(C)(C)OC4)o1 |  | 5.74 |
| Cc1ccc(-c2csc(N3CCC[C@@H]3C(=O)NCCn3c(-c4ccncc4)nc4ccccc43)n2)cc1 | > 79 µM (inactive) |  |
| COc1cc(C(=O)N/N=C/c2ccc(OC(=O)c3cccc(C)c3)c(OC)c2)ccc1O | 31.2 µM (inactive) |  |
| O=C(Nc1ccccc1)c1nc[nH]c1C(=O)NCCCCCCNC(=O)c1[nH]cnc1C(=O)Nc1ccccc1 |  | 5.46 |
| NC(=O)c1nsc(C(=O)N(c2ccccc2F)C(C(=O)NCc2ccc(F)cc2)c2ccc(O)cc2)c1N (configuration not stated) | > 79 µM (inactive) |  |
| O=C(C(=O)N(Cc1ccccc1)Cc1ccccc1)c1c(-c2ccccc2)[nH]c2ccccc12 | > 79 µM (inactive) |  |
| CCOc1ccccc1Nc1nnc(SCc2nnc(-c3cc(OC)c(OC)c(OC)c3)o2)s1 |  | 5.00 |
| COc1cc(NC(=O)c2ccco2)c(OC)cc1NC(=O)c1cc(OC)c(OC)c(OC)c1 | 21 µM (inactive) |  |
| CC(OC(=O)c1cc(-c2cccnc2)nc2ccccc12)C(=O)Nc1ccc2ccccc2c1 (configuration not stated) | > 79 µM (inactive) |  |
| COc1cc(-c2cnc3c(NC=O)cc(-c4cccnc4)cn23)cc(OC)c1OC |  | 4.77 |
| CCCNC(=O)c1ccc(N2CCC3(CC2)CC(c2ccccc2)=NO3)c(NC(=O)c2ccco2)c1 |  | 5.49 |
| COc1cccc(C(=O)Nc2c(C(N)=O)oc3ccccc23)c1 | 27.6 µM (inactive) |  |
| COc1ccc(-c2ccc3c(c2)S(=O)(=O)c2cccc(C(=O)NC[C@@H]4CCCO4)c2C3=O)cc1OC | > 79 µM (inactive) |  |
| N#Cc1c(-c2ccco2)cc(-c2cccnc2)nc1N | 41.2 µM (inactive) |  |

| SMILES | IC50 | pIC50 |
| --- | --- | --- |
| COc1ccc(-c2cc(-c3nnc(COC(=O)C4CC4C)o3)c3ccccc3n2)cc1OC (configuration not stated) |  | 5.46 |
| Cc1cc(N)n(-c2nc(-c3cccnc3)nc3ccccc23)n1 | > 79 µM (inactive) |  |
| O=C(COC(=O)c1c2c(nc3ccccc13)/C(=C/c1cccc([N+](=O)[O-])c1)CCC2)NC1CCS(=O)(=O)C1 (configuration not stated) | > 79 µM (inactive) |  |
| COc1ccc(NC(=O)c2cc(-c3ccccn3)nc3ccccc23)cc1S(=O)(=O)N(C)C | > 79 µM (inactive) |  |
| COc1cc(C(=O)N/N=C/c2sc(N3CCOCC3)nc2-c2ccccc2)cc(OC)c1OC | 48.4 µM (inactive) |  |
| CC(=O)Nc1cccc(-c2cc(NC(C)=O)c3ncc(-c4ccccc4)n3c2)c1 | > 79 µM (inactive) |  |
| O=C(Nc1ccccc1)c1nc[nH]c1C(=O)NCCCCNC(=O)c1[nH]cnc1C(=O)Nc1ccccc1 | 39.6 µM (inactive) |  |
| Cc1cc(C)c(C)c(S(=O)(=O)N2CCN(C(=O)c3cc(=O)[nH]c4ccccc34)CC2)c1C |  | 4.72 |
| COc1ccc(-c2cc(C(=O)N(C)Cc3nc4ccccc4c(=O)[nH]3)c3ccccc3n2)cc1OC | 21.3 µM (inactive) |  |
| COc1ccc(C(C(=O)NC2CCCC2)N(C(=O)c2snc(C(N)=O)c2N)c2cccc(O)c2)cc1 (configuration not stated) | 23.9 µM (inactive) |  |
| Cc1ccc(NC(=O)c2nc[nH]c2C(=O)NCCCNC(=O)c2[nH]cnc2C(=O)Nc2ccc(C)cc2)cc1 | > 79 µM (inactive) |  |
| COc1cc(OC)cc(-c2cc3nc(C)c(CCC(=O)Nc4nc(C)cs4)c(C)n3n2)c1 | > 79 µM (inactive) |  |
| NC(=O)c1nsc(C(=O)N(c2ccccc2)C(C(=O)NC2CCCC2)c2ccc3ncccc3c2)c1N (configuration not stated) |  | 5.26 |
| CCN(CC)C(=O)c1[nH]cnc1C(=O)NCC(=O)OCc1ccccc1 | > 79 µM (inactive) |  |
| COc1cc(NC(=O)c2cc3ccccc3cc2OC)ccc1NC(=O)c1cccs1 |  | 5.37 |
| COc1cccc(-c2cnc3c(NC=O)cc(-c4cccc(NC(C)=O)c4)cn23)c1 | > 79 µM (inactive) |  |
| COc1ccc(CCNc2nc(-c3cccnc3)nc3ccccc23)cc1OC | > 79 µM (inactive) |  |
| COc1ccc(-c2cnc3c(NC=O)cc(-c4cccc(NS(C)(=O)=O)c4)cn23)cc1OC |  | 5.21 |
| CCN1C(=O)/C(=C/c2nc3ccccc3c(=O)[nH]2)c2ccccc21 |  | 5.27 |
| Cc1cc(C)c2c(N)c(C(=O)N/N=C/c3cccnc3)sc2n1 | > 79 µM (inactive) |  |
| O=C(CN1CCN(c2ccccn2)CC1)Nc1ccc([N+](=O)[O-])cc1C(=O)Nc1ccccc1F | > 79 µM (inactive) |  |
| COc1cccc(Nc2nc3ccccc3n3cnnc23)c1 | > 79 µM (inactive) |  |

| SMILES | IC50 | pIC50 |
| --- | --- | --- |
| COc1cccc(-c2cnc3c(NC=O)cc(-c4cc(C)c(O)c(C)c4)cn23)c1 |  | 5.34 |
| COc1ccc(C(C(=O)NCc2ccccc2)N(Cc2ccco2)C(=O)c2snc(C(N)=O)c2N)cc1 (configuration not stated) | 44.1 µM (inactive) |  |
| COc1cc(Nc2nc3ccccc3n3nnnc23)cc(OC)c1OC | > 79 µM (inactive) |  |
| COc1ccc(-c2cc(NC(C)=O)c3ncc(-c4cccc(C(C)=O)c4)n3c2)cc1OC | > 79 µM (inactive) |  |
| Nc1c(C(=O)N/N=C/c2cccnc2)oc2nc(-c3ccccc3)cc(-c3ccco3)c12 | > 79 µM (inactive) |  |
| COc1cccc(-c2cnc3c(NC(C)=O)cc(-c4cccc(NS(C)(=O)=O)c4)cn23)c1 |  | 5.17 |
| Brc1cc2c(cc1/C=N/Nc1nc(N3CCCC3)nc(N3CCOCC3)n1)OCO2 |  | 4.96 |
| COc1ccc(-c2cc(-c3nnc(COC(=O)c4ccncc4)o3)c3ccccc3n2)cc1OC | > 79 µM (inactive) |  |
| Cn1c(=O)c2[nH]c(NN=Cc3cccc(Br)c3)nc2n(C)c1=O | > 79 µM (inactive) |  |
| COc1cc(/C=N/NC(=O)NC23CC4CC(CC(C4)C2)C3)ccc1OCC(N)=O | 48.3 µM (inactive) |  |
| COc1cccc(-c2cnc3c(NC=O)cc(-c4ccc(O)c(OC)c4)cn23)c1 | > 79 µM (inactive) |  |
| COc1cccc(-c2cnc3c(NC=O)cc(-c4cc(OC)c(OC)c(OC)c4)cn23)c1 | > 79 µM (inactive) |  |
| CCn1c(O)c(/C=N/N=C/c2ccccc2)c2ccc(C3=NNC(=O)CC3)cc21 | > 79 µM (inactive) |  |
| COc1cc(-c2cc(C(=O)OCC(=O)NC3CC3)c3ccccc3n2)cc(OC)c1OC |  | 4.90 |
| COc1cc(C(=O)N/N=C/c2ccc(OC(=O)c3ccccc3)c(OC)c2)ccc1O | > 79 µM (inactive) |  |
| CCCn1nc(C(=O)Nc2nc(-c3ccccn3)cs2)c2ccccc2c1=O |  | 5.15 |
| CN(C)S(=O)(=O)c1ccc2[nH]cc(/C=C/c3nc4ccccc4c(=O)n3-c3ccccc3)c2c1 | > 79 µM (inactive) |  |
| COc1ccc(-c2csc(NC(=O)CCCc3nc4ccccc4c(=O)[nH]3)n2)cc1OC |  | 4.92 |
| C=CCOC(=O)C1=C[C@H](c2cn(C(C)=O)c3ccccc23)C[C@H](OCc2ccc(CO)cc2)O1 | > 79 µM (inactive) |  |
| O=C(NCC(=O)N(Cc1cccs1)C(C(=O)NC1CCCCC1)c1ccco1)c1ccco1 (configuration not stated) | > 79 µM (inactive) |  |
| CCOC(=O)C1CCN(c2cc3c(cc2NC(=O)c2ccccc2Cl)n(C)c(=O)n3C)CC1 | > 79 µM (inactive) |  |
